Earlier results in patent publication US20080185562A1, “Oxalate ester chemiluminescent light system” (Tianjin Dragon Chemiluminescent Tubes Co., Ltd., priority 2007, published 2008).

Legend:
[1] = PEG value depends on molecular weight
[2] = at 122° C.
rats = conditions: rat

Structure (SMILES)	Toxicity (LD50 oral, mg/kg) (mus)	Flash point (° C./° F.) [1]	Vapor pressure (kPa) [2] [at 122 °C kPa]	Toxicity (LD50 oral, mg/kg) (rats)
OCCCO [1,3-propylene glycol]	4,770 (mus) mg/kg	79/174	–	–
CCCCOCCOCCOCCCC [dibutyl diethylene glycol ether]	–	117/243	1.33	3,900 (rat) mg/kg
